According to ChEMBL document CHEMBL1201862, “PubChem BioAssay data set” (2004):
Active and inactive are the calls of the source.

Key:
[1] = HepG2 cell cytotoxicity, dose response, cytotoxicity control for non-replicating M. tuberculosis project (AID 489018); format: functional; conditions: Mycobacterium tuberculosis
[2] = Vero E6 cell cytotoxicity, dose response, cytotoxicity control for non-replicating M. tuberculosis project, secondary assay (AID 492998); format: functional, VeroE6; conditions: Vero C1008
A-375 = assay: proliferation inhibition in MITF-low A375 cells – cell-based, cherry-pick samples, set 2, counter-screen for MITF modulator project, dose response (AID 540335); format: functional; conditions: Homo sapiens
Insulin-degrading enzyme [3] = target: T1, Insulin-degrading enzyme (Homo sapiens, UniProt P14735); assay: recombinant IDE activation, cell-free – biochemical, fluorescence polarization, counter-screen for IDE activator project, dose response (AID 588681)
T1 sequence (P14735 whole entry): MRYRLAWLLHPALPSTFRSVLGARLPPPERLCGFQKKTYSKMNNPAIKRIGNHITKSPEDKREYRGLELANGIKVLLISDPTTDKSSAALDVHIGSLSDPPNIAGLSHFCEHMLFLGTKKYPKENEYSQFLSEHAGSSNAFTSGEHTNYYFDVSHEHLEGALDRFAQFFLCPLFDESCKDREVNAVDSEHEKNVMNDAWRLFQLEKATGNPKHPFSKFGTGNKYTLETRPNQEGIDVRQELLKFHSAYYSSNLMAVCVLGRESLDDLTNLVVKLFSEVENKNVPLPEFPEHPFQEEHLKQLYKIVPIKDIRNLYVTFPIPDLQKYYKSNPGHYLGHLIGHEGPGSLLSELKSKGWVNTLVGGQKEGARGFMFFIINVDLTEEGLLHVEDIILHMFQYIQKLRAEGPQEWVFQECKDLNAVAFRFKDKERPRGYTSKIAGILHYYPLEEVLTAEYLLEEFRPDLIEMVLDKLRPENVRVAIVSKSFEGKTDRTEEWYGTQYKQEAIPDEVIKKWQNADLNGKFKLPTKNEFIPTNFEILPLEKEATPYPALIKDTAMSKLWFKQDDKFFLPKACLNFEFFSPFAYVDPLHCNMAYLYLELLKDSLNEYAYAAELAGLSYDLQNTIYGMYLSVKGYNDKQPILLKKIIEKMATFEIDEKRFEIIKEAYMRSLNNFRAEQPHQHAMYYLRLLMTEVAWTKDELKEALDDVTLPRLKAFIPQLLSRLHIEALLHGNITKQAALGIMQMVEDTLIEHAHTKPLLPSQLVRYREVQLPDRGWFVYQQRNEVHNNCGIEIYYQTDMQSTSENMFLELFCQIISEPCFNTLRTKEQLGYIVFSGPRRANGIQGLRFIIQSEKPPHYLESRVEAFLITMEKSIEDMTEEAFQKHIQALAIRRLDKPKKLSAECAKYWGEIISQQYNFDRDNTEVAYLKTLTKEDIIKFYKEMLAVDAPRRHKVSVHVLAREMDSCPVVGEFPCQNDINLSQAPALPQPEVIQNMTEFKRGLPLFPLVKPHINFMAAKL

Insulin-degrading enzyme [4] = target: T1, Insulin-degrading enzyme; assay: cellular IDE activation of Abeta substrate cleavage – fluorescence polarization, HEK cells, dose response (AID 588439); format: functional, cell-based
[5] = THP-1 cell cytotoxicity, dose response, cytotoxicity control for non-replicating M. tuberculosis project (AID 489025); format: functional
HEK293 [6] = assay: optical interference in Abeta FP readout, dose response, artefact control for IDE activator project, biochemical, fluorescence polarization (AID 588442); format: functional, cell-based; conditions: Homo sapiens
[7] = viability of uninfected HEp-2 cells – cell-based, HTS, cytotoxicity control for RSV inhibitor project, dose response (AID 2410); format: functional; conditions: human respiratory syncytial virus
HEK293 [8] = assay: membrane integrity loss in HEK cells – cell-based, fluorescence, cytotoxicity control for IDE activator project, dose response (AID 588440); format: functional; conditions: Homo sapiens;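 further: cytotoxicity by LDH release measuring loss of membrane integrity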
cells = format: functional
[9] = A549 cell cytotoxicity, dose response, cytotoxicity control, plate reader, cherry-pick, antagonist series (AID 743412); format: functional, cell-based
[10] = alpha-synuclein stem-loop luciferase translation blockers – H4 neuroglioma cells, luminescence, confirmation (AID 1988); format: functional, cell-based
[11] = luciferase reporter signal suppression in cells – H4 neuroglioma cells, luminescence, dose response (AID 1990); format: functional, cell-based
INS1 = assay: INS-1E survival protection against cytokine death – cell-based, luminescence, retest, dose response (AID 449756); format: functional; conditions: Rattus norvegicus;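 further: cell death triggered by IL-1 beta plus TNF-alpha plus IFN-gamma mixture; protective hits raise ATP signal compared with cytokine alone wells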
[12] = target: Delta-type opioid receptor (Homo sapiens, UniProt P41143); assay: Counterscreen for agonists of heterodimerization of the mu 1 (OPRM1) and delta 1 (OPRD1) opioid receptors: Luminescence-based cell-based high throughput dose response assay to identify agonists of OPRD1 homodimerization. [Related pubchem assays (depositor defined):AID504326, AID504355, AID504692, AID504904, AID504905]; format: functional
[13] = target: 5-hydroxytryptamine receptor 5A (Homo sapiens, UniProt P47898); assay: Counterscreen for agonists of OPRM1-OPRD1 heterodimerization: luminescence-based cell-based high throughput dose response assay to identify agonists of 5-hydroxytryptamine (serotonin) 5A receptor (HTR5A). [Related pubchem assays (depositor defined):AID504326, AID504355, AID504692, AID504904, AID504905]; format: functional
[14] = Luminescence Cell-Based Dose Retest to Confirm Inhibitors of Cancer Stem Cells. [Related pubchem assays (depositor defined):AID2717, AID2721]; format: functional; conditions: Homo sapiens
[15] = toxicity toward HepG2 liver cells – cell-based, plate reader, cherry-pick, antagonist series, cytotoxicity control, dose response (AID 743416); format: functional
[16] = viability loss in HEK293 cells – cell-based, plate reader, cherry-picked samples, cytotoxicity control, dose response (AID 743446); format: functional
[17] = Luminescence Cell-Based Dose Response HTS to Identify Inhibitors of 5'UTR Stem-Loop Driven Prion Protein mRNA Translation in H4 Neuroglioblastoma Cells. [Related pubchem assays: 1827 (Project Summary), 1813 (Primary HTS)]; format: functional
[18] = blockers of bursicon-stimulated LGR2 cAMP reporter – cell-based, HEK293, CRE-luciferase reporter, cherry pick, set 2, dose response (AID 743343); format: functional;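 further: transfected cells were stimulated with diluted bursicon conditioned medium after compound addition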
[19] = blockade of melanocortin 4 receptor signaling – cell-based, plate reader, cherry pick, counter-screen for LGR2 antagonist project, dose response (AID 743444); format: functional;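 further: transfected HEK 293 cells stimulated with alpha-MSH peptide; potency of inhibitors of the alpha-MSH evoked signal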
Mu-type opioid receptor = Mu-type opioid receptor (Homo sapiens, UniProt P35372); assay: Counterscreen for agonists of heterodimerization of the mu 1 (OPRM1) and delta 1 (OPRD1) opioid receptors: Luminescence-based cell-based high throughput dose response assay to identify agonists of OPRM1 homodimerization.; format: functional;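 further: U2OS cells expressing OPRM1 and beta-arrestin as split beta-galactosidase partners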
[20] = target: T2, Rac GTPase-activating protein 1 (Homo sapiens, UniProt Q9H0H5); assay: blockers of MgcRacGAP-driven Rac1 GTP hydrolysis – biochemical, ADP Hunter fluorescence, primary and confirmatory, confirmation (AID 624330); format: functional
T2 sequence (Q9H0H5 whole entry): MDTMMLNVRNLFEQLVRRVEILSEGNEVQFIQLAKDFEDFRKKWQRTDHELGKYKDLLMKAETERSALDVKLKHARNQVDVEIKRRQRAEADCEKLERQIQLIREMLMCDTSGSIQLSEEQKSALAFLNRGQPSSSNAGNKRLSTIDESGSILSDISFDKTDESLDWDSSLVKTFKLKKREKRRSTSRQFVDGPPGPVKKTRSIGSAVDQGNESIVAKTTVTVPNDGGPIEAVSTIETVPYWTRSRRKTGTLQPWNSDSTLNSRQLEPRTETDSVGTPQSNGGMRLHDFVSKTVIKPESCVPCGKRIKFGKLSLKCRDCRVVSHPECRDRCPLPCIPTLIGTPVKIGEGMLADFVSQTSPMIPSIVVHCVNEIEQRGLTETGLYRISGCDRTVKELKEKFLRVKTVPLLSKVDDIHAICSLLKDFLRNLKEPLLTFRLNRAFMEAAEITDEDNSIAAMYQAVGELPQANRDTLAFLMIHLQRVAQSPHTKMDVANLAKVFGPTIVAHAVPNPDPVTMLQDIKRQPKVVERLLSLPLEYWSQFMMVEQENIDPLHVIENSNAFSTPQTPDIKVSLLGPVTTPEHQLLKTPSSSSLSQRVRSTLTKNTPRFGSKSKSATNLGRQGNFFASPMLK

[21] = target: Dual specificity tyrosine-phosphorylation-regulated kinase 1A (Rattus norvegicus, UniProt Q63470); format: biochemical, Homo sapiens
Large T antigen = Large T antigen (Simian virus 40, UniProt P03070); format: functional, Betapolyomavirus macacae;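 further: Confirmatory-stage PubChem screen for compounds that inhibit SV40 T antigen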
Sequence of Large T antigen (P03070 whole entry): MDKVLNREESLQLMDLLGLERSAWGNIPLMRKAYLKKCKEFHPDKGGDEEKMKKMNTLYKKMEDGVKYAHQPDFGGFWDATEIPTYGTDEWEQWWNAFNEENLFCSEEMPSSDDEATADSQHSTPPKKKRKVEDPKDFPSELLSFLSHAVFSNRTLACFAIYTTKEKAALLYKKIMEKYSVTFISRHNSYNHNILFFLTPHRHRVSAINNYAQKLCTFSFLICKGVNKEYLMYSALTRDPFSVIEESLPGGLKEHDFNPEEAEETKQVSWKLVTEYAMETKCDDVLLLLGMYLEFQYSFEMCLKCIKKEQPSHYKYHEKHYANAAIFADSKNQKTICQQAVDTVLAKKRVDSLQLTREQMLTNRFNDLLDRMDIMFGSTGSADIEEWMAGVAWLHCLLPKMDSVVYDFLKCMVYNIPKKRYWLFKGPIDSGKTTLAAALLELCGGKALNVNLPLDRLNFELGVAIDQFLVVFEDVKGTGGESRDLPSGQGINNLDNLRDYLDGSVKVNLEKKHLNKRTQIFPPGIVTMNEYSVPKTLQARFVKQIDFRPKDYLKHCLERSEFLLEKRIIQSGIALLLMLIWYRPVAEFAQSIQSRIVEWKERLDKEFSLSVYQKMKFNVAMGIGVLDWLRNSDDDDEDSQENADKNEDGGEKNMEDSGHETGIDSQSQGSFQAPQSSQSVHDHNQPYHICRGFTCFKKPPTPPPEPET

Sequence of Delta-type opioid receptor (P41143 whole entry): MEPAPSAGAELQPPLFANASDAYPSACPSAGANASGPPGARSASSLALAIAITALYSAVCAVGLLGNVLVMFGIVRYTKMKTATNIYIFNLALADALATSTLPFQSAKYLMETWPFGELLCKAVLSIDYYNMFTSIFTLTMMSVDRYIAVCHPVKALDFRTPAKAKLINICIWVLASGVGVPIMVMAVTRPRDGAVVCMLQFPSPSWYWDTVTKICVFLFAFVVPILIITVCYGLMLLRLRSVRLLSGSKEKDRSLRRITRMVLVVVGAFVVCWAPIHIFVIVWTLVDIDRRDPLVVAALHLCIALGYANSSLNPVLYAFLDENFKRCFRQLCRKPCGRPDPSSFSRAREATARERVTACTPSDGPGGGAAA
Sequence of 5-hydroxytryptamine receptor 5A (P47898 whole entry): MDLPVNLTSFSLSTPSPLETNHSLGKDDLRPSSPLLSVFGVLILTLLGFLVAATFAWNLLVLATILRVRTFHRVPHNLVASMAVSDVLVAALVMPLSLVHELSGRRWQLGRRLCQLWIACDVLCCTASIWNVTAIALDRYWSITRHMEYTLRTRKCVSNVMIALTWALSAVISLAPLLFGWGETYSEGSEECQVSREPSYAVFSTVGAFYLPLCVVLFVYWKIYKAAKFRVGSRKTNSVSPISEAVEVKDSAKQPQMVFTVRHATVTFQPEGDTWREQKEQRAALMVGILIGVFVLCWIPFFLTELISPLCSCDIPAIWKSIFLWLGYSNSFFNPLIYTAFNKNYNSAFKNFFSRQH
Sequence of Mu-type opioid receptor (P35372 whole entry): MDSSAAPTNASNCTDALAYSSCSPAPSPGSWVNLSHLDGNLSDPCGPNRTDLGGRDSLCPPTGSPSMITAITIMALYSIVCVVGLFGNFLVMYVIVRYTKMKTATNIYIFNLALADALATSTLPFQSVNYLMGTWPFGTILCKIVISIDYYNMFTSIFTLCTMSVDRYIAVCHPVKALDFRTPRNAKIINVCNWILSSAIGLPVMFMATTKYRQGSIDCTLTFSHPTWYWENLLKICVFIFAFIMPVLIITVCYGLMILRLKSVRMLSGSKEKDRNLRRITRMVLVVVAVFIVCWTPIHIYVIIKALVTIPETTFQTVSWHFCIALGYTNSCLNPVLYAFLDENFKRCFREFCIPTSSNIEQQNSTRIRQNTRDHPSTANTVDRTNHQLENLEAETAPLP

For `CN(C)CCCN(C(=O)CCc1ccccc1)c1nc2ccc(Br)cc2s1`, the CC50 [1] was 13.6 µM (active), the CC50 [2] was 10.3 µM (active) and the AC50 (A-375) was 18.6 µM (active). For the same molecule, the EC50 (Insulin-degrading enzyme [3]) was > 54.7 µM (inactive), the EC50 (Insulin-degrading enzyme [4]) was 29.5 µM (inactive) and the CC50 [5] was 17.6 µM (active). For the same molecule, the EC50 (HEK293 [6]) was > 55.9 µM (inactive), the CC50 [7] was 15.7 µM (active) and the IC50 (HEK293 [8]) was 25.4 µM (inactive). The IC50 (cells) was 12.7 µM (active).

In the case of `COc1ccc(C(C)NCCC(c2ccc(OC(C)C)cc2)c2ccccc2OC)cc1` (stereo unspecified), the AC50 [9] is reported as 6.71 µM (active), the EC50 [10] is reported as 7.93 µM (active) and the EC50 [11] is reported as > 120 µM (not active). For the same molecule, the AC50 (INS1) was 7.14 µM (active), the EC50 [12] was > 92.5 µM (inactive) and the EC50 [13] was > 92.5 µM (inactive). The AC50 [14] was 4.45 µM (active), the AC50 [15] was 6.89 µM (active) and the AC50 [16] was 11.8 µM (active). For the same molecule, the EC50 [17] was 10.6 µM (active), the AC50 [18] was 23.2 µM (active) and the AC50 [19] was 28.8 µM (active). The EC50 (Mu-type opioid receptor) was > 92.5 µM (inactive).

In the case of `C=CCSC1=NC(=O)/C(=C/c2cccs2)S1`, the IC50 [20] is reported as 29.7 µM (active), the AC50 [21] is reported as 8.3 µM (active) and the IC50 (Large T antigen) is reported as 40.8 µM (active).
